These results are taken from patent US20210284621A1 (priority 2018, published 2021).

Experiment [1] deals with T1, CB2 receptor (Homo sapiens, UniProt P34972). The experiment can be described thus: cAMP Assay #2: Hit Hunter cAMP assay, Gi-coupled agonist activity, CB2. In kind it is cell-based. The arrangement: host or cells: cAMP Hunter cell lines. The note with it: for CB2 fold selectivity: CB1 EC50 / CB2 EC50. Here is the method:
(§1) Compounds of the invention were assayed in the Hit Hunter® cAMP assay to determine Gi-coupled agonist activity on the CB1 and CB2 receptors, the results of which are provided in Table 5.
(§2) The Hit Hunter® cAMP assay monitors the activation of a GPCR via Gi and […] secondary messenger signaling in a homogenous, non-imaging assay format using a technology developed by DiscoverX called Enzyme Fragment Complementation (EFC) with β-galactosidase (β-Gal) as the functional reporter. […] ED is fused to cAMP and in the assay competes with cAMP generated by cells for binding to a cAMP-specific antibody. Active β-Gal is formed by complementation of exogenous EA to any unbound ED cAMP. Active enzymes can then convert a chemiluminescent substrate, generating an output signal detectable on a standard microplate reader.
(§3) cAMP Hunter cell lines were expanded from freezer stocks according to standard procedures. Cells were seeded in a total volume of 20 μL into white walled, 384-well microplates and incubated at 37° C. for the appropriate time prior to testing. cAMP modulation was determined using the DiscoverX Hit Hunter cAMP XS+ assay. For Gi agonist activity determination, cells were incubated with sample in the presence of EC80 forskolin to induce response (20 μM and 25 μM in the CB1 and CB2 assays, respectively). Media was aspirated from cells and replaced with 15 μL 2:1 HBSS/10 mM HEPES:cAMP XS+Ab reagent.
(§4) Intermediate dilution of sample stocks was performed to generate 4× sample in assay buffer. 5 μL of 4× compound was added to cells and incubated at 37° C. or room temperature for 30 or 60 minutes. Final vehicle concentration was 1%. Assay signal was generated through incubation with 20 μL cAMP XS+ED/CL lysis cocktail for one hour at room temperature. Microplates were read following signal generation with a PerkinElmer Envision™ instrument for chemiluminescent signal detection. Compound activity was analyzed using CBIS data analysis suite (Chem Innovation, CA). For agonist assays, percentage activity was calculated using the following formula: % Activity=100%×(1−(mean RLU of test sample−mean RLU of Max control ligand)/(mean RLU of vehicle control−mean RLU of Max control ligand). Control ligand was the non-selective CB1/CB2 agonist CP55,940.

The target of experiment [2] is T2, CB1 receptor (Homo sapiens, UniProt P21554). The experiment can be described thus: cAMP Assay #2: Hit Hunter cAMP assay, Gi-coupled agonist activity, CB1. In kind it is cell-based. The arrangement: host or cells: PathHunter cell lines. As for the experimental part:
as §1, §2, §3, §4
A general note: cAMP levels reflect the balance of adenylyl cyclase and phosphodiesterase activity.

The target in experiment [3] is T1, CB2 receptor. The experiment in a line: CB2 competitive radioligand binding assay ([3H] WIN-55,212-2). The arrangement: expressed in transfected cells; host or cells: CHO-K1 cells. An outline of the steps: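 Single-concentration displacement: 2.4 nM [3H]WIN-55,212-2 competed with 0.05 μM compound (1% DMSO) for 90 min at 37 °C on human CB2 expressed in CHO-K1 cells (HEPES 20 mM, pH 7.0, 0.5% BSA). Result given as % inhibition of bound radioligand.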

Experiment [4] has as its target T2, CB1 receptor. The experiment can be described thus: CB1 competitive radioligand binding assay ([3H] SR141716A). The arrangement: expressed in transfected cells; host or cells: Chem-1 cells. The gist of the method:
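Chem-1 cells expressing human recombinant CB1 incubated 90 min at 37° C with 2.0 nM [3H]SR141716A and compound at 0.5 μM (1% DMSO) in HEPES pH 7.4 buffer with MgCl2, CaCl2, 0.2% BSA. Read-out is % inhibition of radioligand binding.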

A further experiment deals with LPS-induced PBMCs. The experiment can be described thus: Inflammatory cytokine release from LPS-induced PBMCs (Luminex). Conditions: fold change from LPS-treated PBMCs, compounds 10 μM (DEX 1 μg/ml) 2 h, then LPS 0.1 μg/ml 24 h, negative = reduced. In kind it is cell-based, human. Here is the method:
Compounds of the invention were assayed for their effect on inflammatory cytokine release from lipopolysaccharides (LPS)-induced PBMCs, isolated from a human blood sample, the results of which are provided in Table 7 as fold change. Exemplary methods for quantifying secretion of inflammatory cytokines in PBMCs are known in the art, for example, as described in Hailer et al., Infection and Immunity. 68(2):752-759 (2000); and Merlini et al., Frontiers in Immunology. 7:614 (2016); each of which is incorporated herein by reference with respect to methods for evaluating cytokine release in PBMCs.
In brief, human blood samples from healthy volunteers were collected and PBMCs were isolated. PBMCs were cultured and each compound was assayed in triplicate at a final concentration of 10 μM for 2 hours. 1 μg/ml dexamethasone (DEX) served as a positive control. LPS was added at a final concentration of 0.1 μg/ml and further incubated for 24 hours. At the end of the incubation, the supernatants were collected and the levels of a panel of secreted cytokines were measured by a Human Magnetic Luminex® assay (R&D). The results in Table 7 are presented as a fold change from LPS-treated PBMCs. Reduced levels are expressed by negative values. OOR denotes values that are out of the standard curve range for the specific cytokine and thus, could not be accurately measured. Cytotoxicity was also determined. Compounds with cytotoxicity ≥50% was considered cytotoxic. Baseline cytotoxicity of untreated PBMCs was 17% and all compounds presented in Table 7 induced cytotoxicity below 25%.

Experiment [5] addresses T1, CB2 receptor. The experiment can be described thus: cell-based. The arrangement: host or cells: cAMP Hunter cell lines. As for the experimental part: (§5) The PathHunter® β-Arrestin assay monitors the activation of a GPCR in a homogenous, non-imaging assay format using a technology developed by DiscoverX called Enzyme Fragment Complementation (EFC) with β-galactosidase (3-Gal) as the functional reporter. […] EA is fused to β-Arrestin and PK is fused to the GPCR of interest.
(§6) PathHunter cell lines were expanded from freezer stocks according to standard procedures. Cells were seeded in a total volume of 20 μL into white walled, 384-well microplates and incubated at 37° C. for the appropriate time prior to testing. For agonist activity determination, cells were incubated with sample to induce response. Intermediate dilution of sample stocks was performed to generate 5× sample in assay buffer. 5 μL of 5× sample was added to cells and incubated at 37° C. or room temperature for 90 to 180 minutes. Vehicle concentration was 1%. Assay signal was generated through a single addition of 12.5 or 15 μL (50% v/v) of PathHunter Detection reagent cocktail, followed by a one hour incubation at room temperature. Microplates were read following signal generation with a PerkinElmer Envision™ instrument for chemiluminescent signal detection. Compound activity was analyzed using CBIS data analysis suite (ChemInnovation, CA). For agonist assays, percentage activity was calculated using the following formula: % Activity=100%×(mean RLU of test sample− mean RLU of vehicle control)/(mean MAX control ligand− mean RLU of vehicle control).

Experiment [6] addresses T2, CB1 receptor. The experiment in a line: cell-based. The arrangement: host or cells: PathHunter cell lines. As for the experimental part: as §5, §6
The mark [7] stands for this setting: OOR = out of standard curve range.
[8] abbreviates: PathHunter agonist mode, read-out: CB1 Activity (β-Arrestin).
The mark [9] stands for this setting: PathHunter agonist mode, read-out: CB2 Activity (β-Arrestin).

The structures appear in SMILES notation. Read-outs that look alike come from different tables or passages of the source.

T2 sequence (P21554 whole entry): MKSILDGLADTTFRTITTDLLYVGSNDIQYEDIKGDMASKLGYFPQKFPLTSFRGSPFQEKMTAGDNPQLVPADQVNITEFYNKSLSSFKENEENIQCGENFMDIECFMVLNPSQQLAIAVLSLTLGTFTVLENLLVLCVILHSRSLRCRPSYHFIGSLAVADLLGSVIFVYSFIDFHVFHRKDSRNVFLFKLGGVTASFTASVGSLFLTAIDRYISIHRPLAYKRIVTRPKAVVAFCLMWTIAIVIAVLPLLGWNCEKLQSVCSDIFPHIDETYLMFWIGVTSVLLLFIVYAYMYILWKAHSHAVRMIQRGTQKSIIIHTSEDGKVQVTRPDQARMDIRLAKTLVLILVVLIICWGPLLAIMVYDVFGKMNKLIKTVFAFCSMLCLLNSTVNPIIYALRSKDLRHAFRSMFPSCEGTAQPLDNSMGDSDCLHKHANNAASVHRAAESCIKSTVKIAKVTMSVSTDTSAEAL
T1 sequence (P34972 whole entry): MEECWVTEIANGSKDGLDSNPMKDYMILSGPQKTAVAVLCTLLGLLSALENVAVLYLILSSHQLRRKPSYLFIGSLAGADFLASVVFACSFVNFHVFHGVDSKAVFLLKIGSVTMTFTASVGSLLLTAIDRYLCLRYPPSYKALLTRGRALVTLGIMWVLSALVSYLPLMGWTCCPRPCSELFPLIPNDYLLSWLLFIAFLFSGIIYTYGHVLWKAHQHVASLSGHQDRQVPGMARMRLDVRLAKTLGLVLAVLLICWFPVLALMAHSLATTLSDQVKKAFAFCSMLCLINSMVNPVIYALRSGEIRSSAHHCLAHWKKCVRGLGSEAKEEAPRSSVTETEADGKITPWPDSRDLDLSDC

The Ki is the dissociation constant of the complex between target and ligand, obtained from inhibition or displacement. Compound `CCCC(C)(C)c1cc(O)c2c(c1)OC(C)(C)[C@@H]1CC=C(C(=O)O)C[C@@H]21` [Compound 110, (6aR,10aR)-1-hydroxy-6,6-dimethyl-3-(2-methylpentan-2-yl)-6a,7,10,10a-tetrahydro-6H-benzo[c]chromene-9-carboxylic acid] showed an EC50 on CB2 receptor [1] of 211 nM. For the same compound, the CB2 fold selectivity at CB2 receptor [1] (Hit Hunter cAMP) was above 14. On CB1 receptor [2], this compound had an EC50 above 3000 nM. Moreover, at CB2 receptor [3], the Ki is above 3000 nM. Moreover, at CB1 receptor [4], the Ki was above 3000 nM. In the experiment with LPS-induced PBMCs, this compound returned an IL17A of 1.3 fold change, an IL-1β of −1.5 fold change, an IL-4 of −1.3 fold change and an IL-6 of −1.2 fold change. In the experiment with LPS-induced PBMCs, the IL-8 is reported as −1.0 fold change, the IL-10 is recorded as −1.0 fold change, the MCP-1 is −3.0 fold change and the TNFα is −1.0 fold change. Besides, in the experiment with LPS-induced PBMCs (setting [7]), the “IL-12 (p70)” value is on record as −1.1 fold change and the L-31 is listed as −1.3 fold change. This compound gave an EC50 at CB2 receptor [5] of 37.4 nM. Moreover, the EC50 at CB1 receptor [6] (setting [8]) is above 3000 nM.

The compound `CCCCCCC(C)(C)c1cc(O)c2c(c1)OC(C)(C)[C@@H]1CC=C(C(=O)NC3CC(F)(F)C3)C[C@@H]21` [Compound 89, (6aR,10aR)-N-(3,3-difluorocyclobutyl)-1-hydroxy-6,6-dimethyl-3-(2-methyloctan-2-yl)-6a,7,10,10a-tetrahydro-6H-benzo[c]chromene-9-carboxamide] returned an EC50 at CB2 receptor [1] of 1.3 nM. The same compound showed a CB2 fold selectivity at CB2 receptor [1] (Hit Hunter cAMP) of 34.6. The compound further returned an EC50 at CB1 receptor [2] of 43.6 nM. The same compound showed a Ki on CB2 receptor [3] of 4.3 nM. Moreover, the “Fold Selectivity (CB1/CB2)” value on CB2 receptor [3] (Table 3, ratio of Ki CB1/CB2) is reported as 14.4. Besides, at CB1 receptor [4], the Ki was determined as 62 nM. Further, in the experiment with LPS-induced PBMCs, the IL17A is listed as −14.0 fold change, the IL-1β was −4.8 fold change, the IL-4 is −3.8 fold change and the IL-6 is given as −237.0 fold change. In the experiment with LPS-induced PBMCs, this compound displayed an IL-8 of −4.2 fold change, an IL-10 of −960.1 fold change, an MCP-1 of −143.8 fold change and a TNFα of −35.6 fold change. In addition, the EC50 on CB2 receptor [5] (setting [9]) was determined as 1.9 nM. This compound also came in with an EC50 on CB1 receptor [6] of 33 nM.

`CCCCCCC(C)(C)c1cc(O)c2c(c1)OC(C)(C)[C@@H]1CC=C(C(=O)NO)C[C@@H]21` [Compound 105, (6aR,10aR)-N,1-dihydroxy-6,6-dimethyl-3-(2-methyloctan-2-yl)-6a,7,10,10a-tetrahydro-6H-benzo[c]chromene-9-carboxamide]: the EC50 turned out to be 11.2 nM at CB2 receptor [1], 11.4 nM on CB1 receptor [2], 3.7 nM at CB2 receptor [5] (setting [9]) and 75.6 nM at CB1 receptor [6]. The compound further gave a CB2 fold selectivity on CB2 receptor [1] (Hit Hunter cAMP) of 1.0. For the same compound, the values for the Ki at CB2 receptor [3] and on CB1 receptor [4] were 24.1 nM and 9.2 nM, respectively. The “Fold Selectivity (CB1/CB2)” value at CB2 receptor [3] (Table 3, ratio of Ki CB1/CB2) is 0.4.

One may read the inhibition as the percentage by which the read-out fell short of the control. On to `CCCCCCC(C)(C)c1cc(O)c2c(c1)OC(C)(C)[C@@H]1CC=C(C(=O)NC3CCCCC3)C[C@@H]21` [Compound 16, (6aR,10aR)—N-Cyclohexyl-1-hydroxy-6,6-dimethyl-3-(2-methyloctan-2-yl)-6a,7,10,10a-tetrahydro-6H-benzo[c]chromene-9-carboxamide], for which the EC50 at CB2 receptor [1] (Hit Hunter cAMP, 25 μM forskolin, control ligand CP55,940, read-out: CB2, EC50) is 2.7 nM; on CB1 receptor [2] (Hit Hunter cAMP, 20 μM forskolin, control ligand CP55,940, read-out: CB1, EC50), above 3000 nM; at CB2 receptor [5] (setting [9]), 5 nM; on CB1 receptor [6] (setting [8]), above 3000 nM. This compound also returned a CB2 fold selectivity on CB2 receptor [1] (Hit Hunter cAMP) above 1000. On CB2 receptor [3] (0.05 μM compound, 2.4 nM [3H] WIN-55,212-2, 90 min 37° C.), 0.05 µM produced 57% inhibition. Also, at CB2 receptor [3] (Table 2, ratio of Ki CB1/CB2), the “Fold Selectivity (CB1/CB2)” value was 4. The Ki at CB2 receptor [3] (Table 2, read-out: CB2 Binding Ki) stood at 26 nM; at CB1 receptor [4] (Table 2, read-out: CB1 Binding Ki), 94 nM. The compound further registered an inhibition at 0.5 µM at CB1 receptor [4] (0.5 μM compound, 2.0 nM [3H] SR141716A, 90 min 37° C.) of 84%.

Regarding `CCCCCCC(C)(C)c1cc(O)c2c(c1)OC(C)(C)[C@@H]1CC=C(C(=O)N[C@H]3C[C@H](O)C3)C[C@@H]21` [Compound 45, (6aR,10aR)-1-hydroxy-N-((1R,3R)-3-hydroxycyclobutyl)-6,6-dimethyl-3-(2-methyloctan-2-yl)-6a,7,10,10a-tetrahydro-6H-benzo[c]chromene-9-carboxamide], the EC50 at CB2 receptor [1] amounted to 12 nM; at CB1 receptor [2] it was 274 nM; at CB2 receptor [5] (setting [9]), 6 nM; at CB1 receptor [6], 4980 nM. For the same compound, the CB2 fold selectivity at CB2 receptor [1] (Hit Hunter cAMP) was determined as 22.9. The Ki at CB2 receptor [3] amounted to 10.1 nM; on CB1 receptor [4], 144 nM. Also, the “Fold Selectivity (CB1/CB2)” value at CB2 receptor [3] (Table 3, ratio of Ki CB1/CB2) was determined as 14.3.
